The text below walks through data of PMC5225183, “Fingerprinting of neurotoxic compounds using a mouse embryonic stem cell dual luminescence reporter assay” (Archives of Toxicology, 2016).

Entries after “also recorded” stand apart in the source; their conditions may differ. Like-named read-outs stand apart in the source and are kept apart here. Marks after values point to notes of the source that are not given here.

For data set [1] the following is noted: Table S1, three classes; ref per compound in the footnotes of Table S1; cited from earlier work.
The conditions of data set [2]: cited from earlier work; for Concentration in humans (increase in blood mercury levels after vaccination): ref Pichichero et al. ([2008]).
In data set [3] the test system is ESCs and ESC-derived neurons. The data set can be described thus: Dual luminescence reporter test system, all readouts in ESCs and ESC-derived neurons. The procedure, abridged: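 CGR8-2Luc mouse ESCs (dual reporter: Tα1-FLuc neural, EF1α-RLuc general) exposed 48 h after 24 h plating; ESC-derived neurons re-plated day 5 in N2/bFGF medium. Luciferase normalized to DMSO controls; PI (50 µg/ml, 2 h) measured DNA content as cytotoxicity. Curves scored by ≥30% significant change (ANOVA/Dunnett).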

The mark [4] stands for this setting: ESCs and neurons, FLuc, RLuc, PI.
[5] abbreviates: reporter activity changes in the non-cytotoxic concentration range, highest possible number 4.

As for `O=C(/C=C/c1cccc(S(=O)(=O)Nc2ccccc2)c1)NO` [Belinostat], the “class based on clinical evidence for neurotoxicity” value (shortened to “class based on clinical evidence”) in data set [1] was “Possibly (developmental)”. Moreover, the Concentration in humans in data set [2] (ref Wei et al. ([2014])) is 0.36^f µM. Moreover, the “Number of non-cytotoxic changes” value in data set [3] (mouse, 48 h) came to 1.
With `CC(C)NCC(O)COc1cccc2ccccc12` (stereo not shown) [Propranolol], the “class based on clinical evidence” value in data set [1] is “Non-neurotoxic”. Further, in data set [2] (ref International Programme on Chemical Safety), the Concentration in humans was 0.12–0.19^d µM. In data set [3] (mouse, 48 h), the “Number of non-cytotoxic changes” value was determined as 2.
Consider `Nc1ccccc1NC(=O)c1ccc(CNC(=O)OCc2cccnc2)cc1` [Entinostat], for which, in data set [3] (mouse, 48 h), the “Number of non-cytotoxic changes” value amounted to 1.
Consider `CCCC(CCC)C(=O)O` [Valproic acid], for which the “class based on clinical evidence” value in data set [1] is on record as “Well-established (developmental)”. In addition, the Concentration in humans in data set [2] (ref Krug et al. ([2013b])) is recorded as 500–1000^e µM. Besides, in data set [3] (mouse, 48 h), the “Number of non-cytotoxic changes” value was found to be 2.
As to `C[C@]12CC[C@H](O)CC1=CC[C@@H]1[C@@H]2CC[C@]2(C)C(c3cccnc3)=CC[C@@H]12` [Abiraterone], the “class based on clinical evidence” value in data set [1] was “Possibly (developmental)”. For the same molecule, the Concentration in humans in data set [2] (ref Zimmer et al. ([2014])) was 0.65^k µM. Moreover, in data set [3] (mouse, 48 h), the “Number of non-cytotoxic changes” value stood at 1 and the “concentration up to which no cytotoxicity in the PI assay” value was above 100 µM.
With `C/C(O)=C(\C#N)C(=O)Nc1ccc(C(F)(F)F)cc1` [Teriflunomide], the Concentration in humans in data set [2] (ref Zimmer et al. ([2014])) is 10.8^k µM. In addition, in data set [3], the “concentration range of various effects” value lay in the range of 4 to 40 µM. Besides, the “result in the dual luminescence reporter test system” value (from here on “result”) in data set [3] (setting [4]) is listed as “no effects on general promoter activity and/or on PI fluorescence”. Besides, the “Number of non-cytotoxic changes” value in data set [3] (setting [5]) is listed as 1.
With `Brc1ccc(Oc2cc(Br)c(Br)cc2Br)c(Br)c1` [PBDE-99], in data set [1], the “class based on clinical evidence” value is recorded as “Well-established (developmental)”. In data set [2] (ref Zimmer et al. ([2014])), the “Concentration in humans (human exposure concentration)” value is 97*10^−6k (human exposure concentration) µM and the Human exposure concentrations was 5 to 100 pM. For the same molecule, the “result” value in data set [3] (setting [4]) was “potentially neurotoxic”. For the same molecule, the “Number of non-cytotoxic changes” value in data set [3] (setting [5]) is listed as 1.
On to `O=c1[nH]c(=O)c2[nH]c(=O)[nH]c2[nH]1` [Uric acid], for which the “class based on clinical evidence” value in data set [1] is reported as “Non-neurotoxic”. In addition, the “result” value in data set [3] (setting [4]) is given as “negative”. The “Number of non-cytotoxic changes” value in data set [3] (setting [5]) was 0.
By EC20 is commonly meant the concentration needed for an effect of 20%. As for `COC1=C2C[C@@H](C)C[C@H](OC)[C@H](O)[C@@H](C)/C=C(\C)[C@H](OC(N)=O)[C@@H](OC)/C=C\C=C(/C)C(=O)NC(=CC1=O)C2=O` [Geldanamycin], the “class based on clinical evidence” value in data set [1] was “Possibly (developmental)”. Besides, the Concentration in humans in data set [2] (ref Zimmer et al. ([2014])) is given as 0.8^k µM. Moreover, the “result” value in data set [3] is listed as “considerable cytotoxicity”. Also, in data set [3] (in vitro system (neurons and ESCs)), the EC20 was 1 to 10 nM. Further, the “Number of non-cytotoxic changes” value in data set [3] (mouse, 48 h) was 1.
For `C[CH2][Hg][S]c1ccccc1C(=O)[O-].[Na+]` [Thimerosal], the “class based on clinical evidence” value in data set [1] is listed as “Possibly (developmental)”. Besides, the “increase in blood mercury levels after vaccination” value in data set [2] (conversion of <5 ng/ml, ref Pichichero et al. [2008]) is listed as around 25 nM. Besides, the “Concentration in humans (increase in blood mercury levels after vaccination)” value in data set [2] is “Max 5 ng/ml^j”; in data set [2] (listed as thimerosal), below 5 ng/mL. Further, the “Number of non-cytotoxic changes” value in data set [3] was 0.
Consider `COc1ccc2[nH]c([S+]([O-])Cc3ncc(C)c(OC)c3C)nc2c1` (stereo not shown) [Omeprazole], for which, in data set [1], the “class based on clinical evidence” value is “Non-neurotoxic”. Moreover, the Concentration in humans in data set [2] (ref Linden et al. ([2007])) is recorded as 0.8^b µM. Also, in data set [3], the “result” value is “negative”. Moreover, the “Number of non-cytotoxic changes” value in data set [3] (mouse, 48 h) is given as 0.
As for `[Br][Hg][Br]` [Mercury bromide], the “class based on clinical evidence” value in data set [1] is given as “Possibly (developmental)”. The “Number of non-cytotoxic changes” value in data set [3] stood at 1.
Consider `COC(=O)c1ccc2c(c1)NC(=O)/C2=C(\Nc1ccc(N(C)C(=O)CN2CCN(C)CC2)cc1)c1ccccc1` [Nintedanib], for which the “class based on clinical evidence” value in data set [1] is recorded as “Possibly (developmental)”. The Concentration in humans in data set [2] (ref Zimmer et al. ([2014])) is listed as 0.074^k µM. In data set [3] (mouse, 48 h), the “Number of non-cytotoxic changes” value was determined as 2.
Take Oxytocin: the “class based on clinical evidence” value in data set [1] was “Non-neurotoxic”. In data set [2] (ref Zimmer et al. ([2014])), the Concentration in humans is recorded as 0.002^k µM. The “result” value in data set [3] (setting [4]) is recorded as “did not have any effects”. Further, in data set [3] (setting [5]), the “Number of non-cytotoxic changes” value is reported as 0.
On to `Cc1[nH]c2ccccc2c1CCNCc1ccc(/C=C/C(=O)NO)cc1` [Panobinostat], for which the “class based on clinical evidence” value in data set [1] was “Possibly (developmental)”. Also, in data set [2] (ref Bauer et al. ([2014])), the Concentration in humans is given as 0.036–0.045^h µM. The “result” value in data set [3] is “no enhancement of promoter activities under any condition”. The “Number of non-cytotoxic changes” value in data set [3] (mouse, 48 h) turned out to be 1.
`COCC(=O)O` [Methoxyacetic acid]: the “class based on clinical evidence” value in data set [1] is “Possibly (developmental)”. Moreover, in data set [2] (ref Zimmer et al. ([2014])), the “Concentration in humans (human exposure concentration)” value is reported as 60^k (human exposure concentration) µM. Besides, the “result” value in data set [3] (setting [4]) is given as “very weak signal; also recorded: relatively weak signal”. In addition, the “Number of non-cytotoxic changes” value in data set [3] (setting [5]) came out at 1.
On to `O=C(NC[C@H]1CN(c2ccc(N3CCOCC3=O)cc2)C(=O)O1)c1ccc(Cl)s1` [Rivaroxaban], for which the “class based on clinical evidence” value in data set [1] is reported as “Non-neurotoxic”. In data set [2] (ref Zimmer et al. ([2014])), the Concentration in humans is listed as 0.69^k µM. For the same molecule, the “Number of non-cytotoxic changes” value in data set [3] (mouse, 48 h) is 0.
Turning to `[CH3][Hg][Cl]` [Methylmercury], in data set [1], the “class based on clinical evidence” value is “Well-established (developmental)”. For the same molecule, the Concentration in humans in data set [2] (ref Krug et al. ([2013b])) was 0.005–0.5^e µM; in data set [2] (ref Krug et al. ([2013b]), listed as methylmercury), 0.005 to 0.5 µM. The “Number of non-cytotoxic changes” value in data set [3] (setting [5]) is 1.
Turning to `COc1cc2ncnc(Nc3ccc(F)c(Cl)c3)c2cc1OCCCN1CCOCC1` [Gefitinib], the “class based on clinical evidence” value in data set [1] was “Possibly (developmental)”. The Concentration in humans in data set [2] (ref Zimmer et al. ([2014])) is on record as 1.2^k µM. The “Number of non-cytotoxic changes” value in data set [3] (mouse, 48 h) is on record as 0.
On to “Erythropoietin: EpoR agonist controlling erythropoiesis and neurogenesis; Peptide/Protein”, for which the “class based on clinical evidence” value in data set [1] was “Non-neurotoxic”. For the same molecule, the Concentration in humans in data set [2] (ref Zimmer et al. ([2014])) was 0.0003^k µM. Further, the “Number of non-cytotoxic changes” value in data set [3] (setting [5]) turned out to be 0.

B1: G-CSF: Hormone stimulating granulopoiesis; Peptide/Protein (protein, UniProt P09919 31-207, looked up)
Granulocyte …: TPLGPASSLPQSFLLKCLEQVRKIQGDGAALQEKLVSECATYKLCHPEELVLLGHSLGIPWAPLSSCPSQALQLAGCLSQLHSGLFLYQGLLQALEGISPELGPTLDTLQLDVADFATTIWQQMEELGMAPALQPTQGAMPAFASAFQRRAGGVLVASHLQSFLEVSYRVLRHLAQP
Turning to B1, the “class based on clinical evidence” value in data set [1] is given as “Non-neurotoxic”. Further, the Concentration in humans in data set [2] (ref Zimmer et al. ([2014])) was 1.3*10^−6k µM. Further, the “Number of non-cytotoxic changes” value in data set [3] (setting [5]) was found to be 0.
